Measured values from patent US6503449B1, “Process for the control of microbial contamination in water-based solids suspensions” (Ciba Specialty Chemicals Corporation, priority 1998, dated 2003).

Test system: Pseudomonas putida
Assay: Sonication (20 kHz horn probe) of Pigment Red 23 dispersion with biocide, streaking on Nutrient Agar plates
Type: cell-based
Set-up: key: −: no bacterial colonies detected; +: light contamination (10^0 and 10^3 cfu/ml); ++: moderate contamination(10^3-10^5 cfu/ml); +++: heavy contamination(>10^5 cfu/ml)
Excerpt: A mixture of Pigment Red 23, available from Ciba Specialty Chemicals(UK) Ltd., 215.5 parts, Emulan OG (RTM) (35% solution in water), available from BASF, 153.7 parts, tributyl phosphate, available from Albright & Wilson, 2 parts, and water, 128.8 parts, are dispersed by re-circulation through a Bachofen KDL200 bead-mill until colouristic properties are within specification of UNISPERSE (RTM) Red RBS-PI, available from Ciba Specialty Chemicals(UK) Ltd., and adjusted to pH 8.0-8.5 with 20% sodium hydroxide solution. This material is identified as containing the Gram negative bacterium, Pseudomonas putida. 50 millilitre aliquots of this dispersion containing levels of glutaraldehyde (pentane-1,5-dialdehyde), available as the trade product Protectol GDA form BASF or Ucarcide from Union Carbide, between 0 parts per million (ppm) and 2000 ppm are sonicated using a Branson MSE sonicator with a 19 mm horn probe resonating at 20 kHz with an amplitude of 6 microns. Sonication is undertaken in a 100 millilitre glass beaker, diameter 38 mm, with magnetic flea agitator and cooled in a water/ice bath to maintain temperature at 28-32° C. Bacterial growth in each sample is assessed at 5 minute intervals by streaking each dispersion on to Nutrient Agar(NA) plates and incubating the plates for a minimum of 48 hours at 30° C. The plates are then examined for bacterial colonies and expressed according to the following notation:
The resistance of the pigment dispersion produced according to the process of the invention to further bacterial growth is recorded by continued observation of the samples of Table 1 over a period of up to 90 days. […]

O=CCCCC=O [glutaraldehyde, pentane-1,5-dialdehyde]
bacterial colonies on Nutrient Agar (100 ppm, sonicated 0 mins.): +++ (heavy contamination(>10^5 cfu/ml)) | bacterial colonies on Nutrient Agar (100 ppm, sonicated 5 mins.): + (light contamination (10^0 and 10^3 cfu/ml)) | bacterial colonies on Nutrient Agar (100 ppm, sonicated 10 mins.): + (light contamination (10^0 and 10^3 cfu/ml)) | bacterial colonies on Nutrient Agar (100 ppm, sonicated 15 mins.): − | bacterial colonies on Nutrient Agar (100 ppm, sonicated 20 mins.): − | bacterial colonies on Nutrient Agar (100 ppm, sonicated 25 mins.): − | bacterial colonies on Nutrient Agar (100 ppm, sonicated 30 mins.): − | further bacterial growth, samples of Table 1 (150 ppm, Time 1 (days) after sonication): − | further bacterial growth, samples of Table 1 (150 ppm, Time 2 (days) after sonication): − | further bacterial growth, samples of Table 1 (150 ppm, Time 3 (days) after sonication): − | further bacterial growth, samples of Table 1 (150 ppm, Time 7 (days) after sonication): − | further bacterial growth, samples of Table 1 (150 ppm, Time 14 (days) after sonication): − | further bacterial growth, samples of Table 1 (150 ppm, Time 28 (days) after sonication): − | further bacterial growth, samples of Table 1 (150 ppm, Time 90 (days) after sonication): − | bacterial colonies on Nutrient Agar (150 ppm, sonicated 0 mins.): +++ (heavy contamination(>10^5 cfu/ml)) | bacterial colonies on Nutrient Agar (150 ppm, sonicated 5 mins.): − | bacterial colonies on Nutrient Agar (150 ppm, sonicated 10 mins.): − | bacterial colonies on Nutrient Agar (150 ppm, sonicated 15 mins.): − | bacterial colonies on Nutrient Agar (150 ppm, sonicated 20 mins.): − | bacterial colonies on Nutrient Agar (150 ppm, sonicated 25 mins.): − | bacterial colonies on Nutrient Agar (150 ppm, sonicated 30 mins.): − | further bacterial growth, samples of Table 1 (500 ppm, Time 1 (days) after sonication): − | further bacterial growth, samples of Table 1 (500 ppm, Time 2 (days) after sonication): − | further bacterial growth, samples of Table 1 (500 ppm, Time 3 (days) after sonication): − | further bacterial growth, samples of Table 1 (500 ppm, Time 7 (days) after sonication): − | further bacterial growth, samples of Table 1 (500 ppm, Time 14 (days) after sonication): − | further bacterial growth, samples of Table 1 (500 ppm, Time 28 (days) after sonication): − | further bacterial growth, samples of Table 1 (500 ppm, Time 90 (days) after sonication): − | bacterial colonies on Nutrient Agar (500 ppm, sonicated 0 mins.): +++ (heavy contamination(>10^5 cfu/ml)) | bacterial colonies on Nutrient Agar (500 ppm, sonicated 5 mins.): − | bacterial colonies on Nutrient Agar (500 ppm, sonicated 10 mins.): − | bacterial colonies on Nutrient Agar (500 ppm, sonicated 15 mins.): − | bacterial colonies on Nutrient Agar (500 ppm, sonicated 20 mins.): − | bacterial colonies on Nutrient Agar (500 ppm, sonicated 25 mins.): − | bacterial colonies on Nutrient Agar (500 ppm, sonicated 30 mins.): − | further bacterial growth, samples of Table 1 (1000 ppm, Time 1 (days) after sonication): − | further bacterial growth, samples of Table 1 (1000 ppm, Time 2 (days) after sonication): − | further bacterial growth, samples of Table 1 (1000 ppm, Time 3 (days) after sonication): − | further bacterial growth, samples of Table 1 (1000 ppm, Time 7 (days) after sonication): − | further bacterial growth, samples of Table 1 (1000 ppm, Time 14 (days) after sonication): − | further bacterial growth, samples of Table 1 (1000 ppm, Time 28 (days) after sonication): − | further bacterial growth, samples of Table 1 (1000 ppm, Time 90 (days) after sonication): − | bacterial colonies on Nutrient Agar (1000 ppm, sonicated 0 mins.): +++ (heavy contamination(>10^5 cfu/ml)) | bacterial colonies on Nutrient Agar (1000 ppm, sonicated 5 mins.): − | bacterial colonies on Nutrient Agar (1000 ppm, sonicated 10 mins.): − | bacterial colonies on Nutrient Agar (1000 ppm, sonicated 15 mins.): − | bacterial colonies on Nutrient Agar (1000 ppm, sonicated 20 mins.): − | bacterial colonies on Nutrient Agar (1000 ppm, sonicated 25 mins.): − | bacterial colonies on Nutrient Agar (1000 ppm, sonicated 30 mins.): − | further bacterial growth, samples of Table 1 (2000 ppm, Time 1 (days) after sonication): − | further bacterial growth, samples of Table 1 (2000 ppm, Time 2 (days) after sonication): − | further bacterial growth, samples of Table 1 (2000 ppm, Time 3 (days) after sonication): − | further bacterial growth, samples of Table 1 (2000 ppm, Time 7 (days) after sonication): − | further bacterial growth, samples of Table 1 (2000 ppm, Time 14 (days) after sonication): − | further bacterial growth, samples of Table 1 (2000 ppm, Time 28 (days) after sonication): − | further bacterial growth, samples of Table 1 (2000 ppm, Time 90 (days) after sonication): − | bacterial colonies on Nutrient Agar (2000 ppm, sonicated 0 mins.): +++ (heavy contamination(>10^5 cfu/ml)) | bacterial colonies on Nutrient Agar (2000 ppm, sonicated 5 mins.): − | bacterial colonies on Nutrient Agar (2000 ppm, sonicated 10 mins.): − | bacterial colonies on Nutrient Agar (2000 ppm, sonicated 15 mins.): − | bacterial colonies on Nutrient Agar (2000 ppm, sonicated 20 mins.): − | bacterial colonies on Nutrient Agar (2000 ppm, sonicated 25 mins.): − | bacterial colonies on Nutrient Agar (2000 ppm, sonicated 30 mins.): −
